{
  "source": "paper PMC11562016",
  "about": "(Structure (London, England : 1993), 2024)",
  "key": {"[1]": {"target": "human α1β GlyR (α1:β, α1wtβwt) (Homo sapiens, UniProt P23415+P48167)", "conditions": "for τdes: desensitization"}, "α1:βY231A GlyR": {"target": "α1:βY231A GlyR (Homo sapiens, UniProt P23415+P48167, Y253A)"}, "α1:βR86TY231A GlyR": {"target": "α1:βR86TY231A GlyR (Homo sapiens, UniProt P23415+P48167, R108T/Y253A)"}, "[2]": {"target": "α1:α1-β-α1 FYF (α1: α1F207A-βY231A-α1F207A) GlyR (Homo sapiens, UniProt P23415+P48167, F235A/Y253A)"}, "[3]": {"target": "α1:α1-β-α1 RFYF (α1: α1R65DF207A-βY231A-α1F207A) GlyR (Homo sapiens, UniProt P23415+P48167, F235A/R93D/Y253A)"}, "α1F207A:β GlyR": {"target": "α1F207A:β GlyR (Homo sapiens, UniProt P23415+P48167, F235A)"}, "α1F207A:α1-β GlyR": {"target": "α1F207A:α1-β GlyR (Homo sapiens, UniProt P23415+P48167, F235A)"}, "α1F207A:α1-β-α1 GlyR": {"target": "α1F207A:α1-β-α1 GlyR (Homo sapiens, UniProt P23415+P48167, F235A)"}, "α1sβsg GlyR": {"tested_on": "α1sβsg GlyR", "conditions": "for τdes: desensitization"}, "[4]": {"tested_on": "α1β GlyR with mutation of a single α-α or α-β site", "conditions": "Supplementary Fig.S4"}, "[5]": {"conditions": "glycine dose-response, Hill fit"}},
  "note": "Values joined by “and” are separate entries in the source; they are usually repeats but may differ in a detail not shown here. Identical values can stand only once. Like-named read-outs stand apart in the source and are kept apart here.",
  "data": [
    {"smiles": "NCC(=O)O", "note": "[glycine, Glycine]", "values": [
      {"measurement": "current remaining after desensitization", "setting": "[1]; 40 μM glycine", "value": "~ 66%"},
      {"measurement": "τclose", "setting": "[1]; 40 μM glycine", "value": "0.3 ± 0.1", "unit": "s"},
      {"measurement": "τopen", "setting": "[1]; 40 μM glycine", "value": "0.6 ± 0.3", "unit": "s"},
      {"measurement": "τdes", "setting": "[1]; 40 μM glycine", "value": "4.8 ± 0.9", "unit": "s"},
      {"measurement": "τclose", "setting": "[1]; 100 μM glycine", "value": "0.3 ± 0.1", "unit": "s"},
      {"measurement": "τopen", "setting": "[1]; 100 μM glycine", "value": "0.18 ± 0.03", "unit": "s"},
      {"measurement": "τdes", "setting": "[1]; 100 μM glycine", "value": "7.5 ± 1.2", "unit": "s"},
      {"measurement": "τclose", "setting": "[1]; 200 μM glycine", "value": "1.1 ± 0.1", "unit": "s"},
      {"measurement": "τopen", "setting": "[1]; 200 μM glycine", "value": "0.07 ± 0.01", "unit": "s"},
      {"measurement": "τdes", "setting": "[1]; 200 μM glycine", "value": "7.8 ± 0.6", "unit": "s"},
      {"measurement": "current remaining after desensitization", "setting": "[1]; 1 mM glycine", "value": "~ 18%"},
      {"measurement": "τclose", "setting": "[1]; 1000 μM glycine", "value": "1.0 ± 0.1", "unit": "s"},
      {"measurement": "τopen", "setting": "[1]; 1000 μM glycine", "value": "0.06 ± 0.01", "unit": "s"},
      {"measurement": "τdes", "setting": "[1]; 1000 μM glycine", "value": "6.5 ± 0.4", "unit": "s"},
      {"measurement": "increase in desensitization recovery time constant", "setting": "[1]; 1 mM vs 40 μM glycine", "value": "~ 7 fold"},
      {"measurement": "increase in the extent of desensitization", "setting": "[1]; 1 mM vs 40 μM glycine", "value": "~ 4 fold"},
      {"measurement": "current remaining after desensitization (residual activity)", "setting": "[1]; 10 mM glycine", "value": "~ 3%"},
      {"measurement": "desensitization time constants", "setting": "[1]; across glycine concentrations 40 μM to 10 mM", "value": "5 to 8", "unit": "s"},
      {"measurement": "τclose", "setting": "[1]; beyond 200 μM glycine", "value": "~ 1.1 s"},
      {"measurement": "nh (Hill coefficent)", "setting": "[1]; [5]", "value": "2.5 ± 0.4"},
      {"measurement": "minimum τopen", "setting": "[1]; increased glycine concentrations, likely limited by instrument", "value": 60, "unit": "ms"},
      {"measurement": "Imax, maximum glycine-induced current amplitude", "setting": "[1]; whole-cell, -70 mV", "value": "7.0 ± 0.9", "unit": "nA"},
      {"measurement": "Imax, maximum glycine-induced current amplitude", "setting": "α1:βY231A GlyR", "value": "5.0 ± 0.7", "unit": "nA"},
      {"measurement": "nh (Hill coefficent)", "setting": "α1:βY231A GlyR; [5]", "value": "3.1 ± 0.5"},
      {"measurement": "Imax, maximum glycine-induced current amplitude", "setting": "α1:βR86TY231A GlyR", "value": "7.1 ± 0.5", "unit": "nA"},
      {"measurement": "nh (Hill coefficent)", "setting": "α1:βR86TY231A GlyR; [5]", "value": "2.1 ± 0.3"},
      {"measurement": "Imax, maximum glycine-induced current amplitude", "setting": "[2]", "value": "4.5 ± 0.7", "unit": "nA"},
      {"measurement": "nh (Hill coefficent)", "setting": "[2]; [5]", "value": "2.2 ± 0.4"},
      {"measurement": "Imax, maximum glycine-induced current amplitude", "setting": "[3]", "value": "0.8 ± 0.3", "unit": "nA"},
      {"measurement": "nh (Hill coefficent)", "setting": "[3]; [5]", "value": "1.6 ± 2.0"},
      {"measurement": "channel activation by glycine", "setting": "[3]; only 1 intact glycine site", "value": "inactive"},
      {"measurement": "Imax, maximum glycine-induced current amplitude", "setting": "α1F207A:β GlyR", "value": "0.8 ± 0.2", "unit": "nA"},
      {"measurement": "nh (Hill coefficent)", "setting": "α1F207A:β GlyR; [5]", "value": "1.4 ± 1.5"},
      {"measurement": "Imax, maximum glycine-induced current amplitude", "setting": "α1F207A:α1-β GlyR", "value": "0.2 ± 0.1", "unit": "nA"},
      {"measurement": "nh (Hill coefficent)", "setting": "α1F207A:α1-β GlyR; [5]", "value": "1.0 ± 0.6"},
      {"measurement": "Imax, maximum glycine-induced current amplitude", "setting": "α1F207A:α1-β-α1 GlyR", "value": "0.5 ± 0.1", "unit": "nA"},
      {"measurement": "nh (Hill coefficent)", "setting": "α1F207A:α1-β-α1 GlyR; [5]", "value": "1.8 ± 3.3"},
      {"measurement": "I des / Imax", "setting": "α1sβsg GlyR; 40 μM glycine", "value": "0.74 ± 0.05"},
      {"measurement": "τclose", "setting": "α1sβsg GlyR; 40 μM glycine", "value": "0.4 ± 0.1", "unit": "s"},
      {"measurement": "τopen", "setting": "α1sβsg GlyR; 40 μM glycine", "value": "0.9 ± 0.1", "unit": "s"},
      {"measurement": "τdes", "setting": "α1sβsg GlyR; 40 μM glycine", "value": "5.4 ± 1.2", "unit": "s"},
      {"measurement": "I des / Imax", "setting": "α1sβsg GlyR; 100 μM glycine", "value": "0.38 ± 0.05"},
      {"measurement": "τclose", "setting": "α1sβsg GlyR; 100 μM glycine", "value": "0.5 ± 0.1", "unit": "s"},
      {"measurement": "τopen", "setting": "α1sβsg GlyR; 100 μM glycine", "value": "0.5 ± 0.1", "unit": "s"},
      {"measurement": "τdes", "setting": "α1sβsg GlyR; 100 μM glycine", "value": "7.0 ± 1.3", "unit": "s"},
      {"measurement": "I des / Imax", "setting": "α1sβsg GlyR; 1000 μM glycine", "value": "0.17 ± 0.03"},
      {"measurement": "τclose", "setting": "α1sβsg GlyR; 1000 μM glycine", "value": "0.9 ± 0.3", "unit": "s"},
      {"measurement": "τopen", "setting": "α1sβsg GlyR; 1000 μM glycine", "value": "0.06 ± 0.01", "unit": "s"},
      {"measurement": "τdes", "setting": "α1sβsg GlyR; 1000 μM glycine", "value": "8.8 ± 1.8", "unit": "s"},
      {"measurement": "EC50", "setting": "α1sβsg GlyR; glycine response normalized to 1 mM glycine", "value": "~100", "unit": "µM"},
      {"measurement": "desensitization forward rate constant kdes", "setting": "α1β GlyR; model parameter", "value": "0.18 ± 0.05 and 0.18"},
      {"measurement": "desensitization reverse rate constant kdes_r", "setting": "α1β GlyR; model parameter", "value": "0.007 ± 0.002 and 0.007"},
      {"measurement": "rate scaler after desensitization ndes", "setting": "α1β GlyR; model parameter", "value": "0.006 ± 0.007 and 0.006"},
      {"measurement": "dissociation rate constants kdα = kdβ", "setting": "α1β GlyR; model parameter matched to full recording traces", "value": "10 ± 2"},
      {"measurement": "EC50", "setting": "[4]", "value": "~140", "unit": "µM"}
    ]}
  ]
}
